Test results: ChEMBL document CHEMBL1141353, “Three biscembranoids and their monomeric counterpart cembranoid, a biogenetic Diels-Alder precursor, from the soft coral Sarcophyton elegans” (J Nat Prod, 2007)
The source made the active and inactive calls. The rule behind the calls is not given here.

What was measured:
Escherichia coli = assay: Antibacterial activity against Escherichia coli at 1.5 ug/ml; type: functional, organism-based
[1] = Toxicity in brine shrimp assessed as survival rate after 24 hrs; type: organism-based; conditions: artemia salina, in vivo

| SMILES | Activity (Escherichia coli) | LC50 at 24 h [1] [nM] |
| --- | --- | --- |
| COC(=O)[C@]12CC(=O)[C@H](C(C)C)CC(=O)[C@H](C)CCC[C@H](C)CC(=O)[C@H]1CC(C)=C1C[C@H](O)[C@@]3(C)O[C@@H](CC/C(C)=C/[C@@H]12)[C@@]1(C)CC[C@@H]3O1 | Active |  |
| COC(=O)[C@]12CC(=O)[C@H](C(C)C)CC(=O)[C@H](C)CCC[C@H](C)CC(=O)[C@H]1CC(C)=C1C[C@H](O)[C@]3(C)O[C@@H]3CC[C@]3(C)O[C@@H]3CC/C(C)=C/[C@@H]12 [DIEPOXYNYALOLIDE] |  | 1500 |
| COC(=O)/C1=C/C(=O)C[C@@H](C)CCC[C@@H](C)C(=O)C[C@@H](C(C)C)C(=O)C1 [METHYL TETRAHYDROSARCOATE] |  | 1500 |
